ChEMBL document CHEMBL4184317, “Discovery of Tetrahydroquinoxalines as Bromodomain and Extra-Terminal Domain (BET) Inhibitors with Selectivity for the Second Bromodomain” (J Med Chem, 2018)
pIC50, pKd: −log10 of the molar value.

Columns and labels:
[1] = molecular target: T1, Bromodomain testis-specific protein (Homo sapiens, UniProt Q58F21); assay: Inhibition of BRDT BD2 (unknown origin) after 30 mins by TR-FRET assay
[2] = molecular target: T1, Bromodomain testis-specific protein; assay: Inhibition of BRDT BD1 (unknown origin) after 30 mins by TR-FRET assay
[3] = molecular target: ATPase family AAA domain-containing protein 2 (Homo sapiens, UniProt Q6PL18); assay: Binding affinity to human partial length DNA-tagged ATAD2A expressed in bacterial by BROMOscan method
ATPase family AAA domain-containing protein 2, sequence (Q6PL18 whole entry, the tested form may be a part, canonical isoform): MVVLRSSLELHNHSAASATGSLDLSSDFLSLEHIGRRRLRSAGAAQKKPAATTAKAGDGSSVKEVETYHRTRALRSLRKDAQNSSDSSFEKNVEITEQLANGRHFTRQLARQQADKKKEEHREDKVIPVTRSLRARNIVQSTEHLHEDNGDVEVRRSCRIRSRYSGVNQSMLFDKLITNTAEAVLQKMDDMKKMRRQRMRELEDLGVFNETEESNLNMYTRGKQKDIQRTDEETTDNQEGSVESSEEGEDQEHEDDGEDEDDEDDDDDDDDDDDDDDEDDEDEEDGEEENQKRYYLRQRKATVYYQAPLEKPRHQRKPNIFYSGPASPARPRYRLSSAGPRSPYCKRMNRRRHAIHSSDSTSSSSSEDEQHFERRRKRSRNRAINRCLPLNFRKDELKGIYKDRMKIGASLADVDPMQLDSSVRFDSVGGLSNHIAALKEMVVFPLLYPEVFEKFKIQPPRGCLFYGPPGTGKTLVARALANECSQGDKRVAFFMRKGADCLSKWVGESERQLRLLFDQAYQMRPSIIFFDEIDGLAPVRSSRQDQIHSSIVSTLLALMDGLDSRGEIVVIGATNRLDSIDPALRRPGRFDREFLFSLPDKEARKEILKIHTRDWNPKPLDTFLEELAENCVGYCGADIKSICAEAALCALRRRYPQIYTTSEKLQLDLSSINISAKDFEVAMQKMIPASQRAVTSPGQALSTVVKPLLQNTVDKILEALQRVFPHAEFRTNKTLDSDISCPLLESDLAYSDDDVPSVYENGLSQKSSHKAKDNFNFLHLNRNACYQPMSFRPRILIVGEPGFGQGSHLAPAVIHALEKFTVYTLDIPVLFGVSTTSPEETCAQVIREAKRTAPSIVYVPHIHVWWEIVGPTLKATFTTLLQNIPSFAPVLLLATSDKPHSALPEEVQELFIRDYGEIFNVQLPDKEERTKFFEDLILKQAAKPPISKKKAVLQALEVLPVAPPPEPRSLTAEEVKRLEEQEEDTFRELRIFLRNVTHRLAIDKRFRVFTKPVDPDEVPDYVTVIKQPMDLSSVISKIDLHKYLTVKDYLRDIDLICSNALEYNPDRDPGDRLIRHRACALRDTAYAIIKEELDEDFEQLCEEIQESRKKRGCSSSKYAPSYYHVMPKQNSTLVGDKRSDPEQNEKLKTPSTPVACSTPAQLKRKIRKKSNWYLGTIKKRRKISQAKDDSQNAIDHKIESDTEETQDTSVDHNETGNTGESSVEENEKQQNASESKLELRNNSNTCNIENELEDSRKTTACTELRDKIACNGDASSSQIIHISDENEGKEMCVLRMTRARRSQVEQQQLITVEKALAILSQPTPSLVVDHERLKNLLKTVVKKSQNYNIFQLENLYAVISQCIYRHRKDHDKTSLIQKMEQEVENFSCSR

[4] = molecular target: T1, Bromodomain testis-specific protein; assay: Binding affinity to human partial length DNA-tagged BRDT isoform b BD2 expressed in bacterial by BROMOscan method
[5] = molecular target: Bromodomain-containing protein 1 (Homo sapiens, UniProt O95696); assay: Binding affinity to human partial length DNA-tagged BRD1 expressed in bacterial by BROMOscan method
Bromodomain-containing protein 1, sequence (O95696 whole entry): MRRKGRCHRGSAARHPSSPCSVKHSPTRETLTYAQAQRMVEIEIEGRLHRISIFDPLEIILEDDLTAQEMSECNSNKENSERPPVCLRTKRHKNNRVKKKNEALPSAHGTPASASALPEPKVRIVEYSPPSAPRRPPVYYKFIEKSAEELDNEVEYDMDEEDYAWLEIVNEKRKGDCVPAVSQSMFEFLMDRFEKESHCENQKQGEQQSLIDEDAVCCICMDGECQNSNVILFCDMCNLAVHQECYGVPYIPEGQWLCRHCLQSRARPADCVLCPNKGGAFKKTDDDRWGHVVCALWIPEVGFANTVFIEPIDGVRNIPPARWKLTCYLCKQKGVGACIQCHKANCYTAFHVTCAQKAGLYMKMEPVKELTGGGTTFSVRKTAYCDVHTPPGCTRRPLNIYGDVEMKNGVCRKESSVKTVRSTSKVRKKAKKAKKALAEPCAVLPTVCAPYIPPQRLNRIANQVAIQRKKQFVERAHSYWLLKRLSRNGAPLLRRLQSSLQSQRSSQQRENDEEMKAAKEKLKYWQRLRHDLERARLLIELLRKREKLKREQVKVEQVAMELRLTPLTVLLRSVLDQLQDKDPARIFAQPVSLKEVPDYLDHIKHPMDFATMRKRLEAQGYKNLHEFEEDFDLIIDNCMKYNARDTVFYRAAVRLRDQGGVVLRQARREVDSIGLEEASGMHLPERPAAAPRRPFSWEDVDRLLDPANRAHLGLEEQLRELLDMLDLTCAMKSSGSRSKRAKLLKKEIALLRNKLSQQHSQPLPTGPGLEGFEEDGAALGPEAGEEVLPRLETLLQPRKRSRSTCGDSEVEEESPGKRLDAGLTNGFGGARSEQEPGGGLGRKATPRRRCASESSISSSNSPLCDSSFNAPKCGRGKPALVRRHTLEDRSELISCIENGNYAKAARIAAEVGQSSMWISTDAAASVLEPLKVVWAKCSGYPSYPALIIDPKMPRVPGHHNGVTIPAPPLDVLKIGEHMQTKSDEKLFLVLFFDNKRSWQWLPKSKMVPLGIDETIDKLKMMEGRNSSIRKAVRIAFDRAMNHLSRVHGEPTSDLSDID

CC(=O)N1c2ccc(C3=CCNCC3)cc2N(Cc2ccccc2CO)C[C@@H]1C1CC1
pIC50 [1]: 6.70
pIC50 [2]: 5.80
pKd [3]: < 4.52
pKd [4]: 7.68
pKd [5]: < 4.52
